Laboratory results: patent US20060100431A1, “Biologically active compounds” (Amura Therapeutics Limited, priority 2002, published 2006)

Experiments:
Format in all cases: biochemical
Wild-type cruzipain = Wild-type cruzipain (Trypanosoma cruzi, UniProt P25779); test: Trypanosoma cruzi cruzipain peptidase activity assay (Ki); conditions: read-out: Ki, inhibitors of cruzain and cruzipains
Method in brief: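 Native cruzipain from T. cruzi Dm28 epimastigotes, 2.5 nM, in 100 mM sodium phosphate pH 6.75 with 1 mM EDTA and 10 mM L-cysteine, 25 °C, DMSO <1%. Rates taken from continuous fluorogenic substrate read; Ki by regression assuming reversible pure-competitive inhibition.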

human cathepsin L = biological target: T1, human cathepsin L (Homo sapiens, UniProt P07711); test: Cathepsin L peptidase activity assay (Ki); conditions: read-out: Ki, inhibitors of cathepsin L
T1 construct: purchased CN Biosciences
Description: Unless otherwise stated, all general chemicals and biochemicals were purchased from either the Sigma Chemical Company, Poole, Dorset, U.K or from Fisher Scientific UK, Loughborough, Leicestershire, U.K. Absorbance assays were carried out in flat-bottomed 96-well plates (Spectra; Greiner Bio-One Ltd., Stonehouse, Gloucestershire, U.K.) using a SpectraMax PLUS384 plate reader (Molecular Devices, Crawley, U.K.). Fluorescence high throughput assays were carried out in either 384-well microtitre plates (Corning Costar 3705 plates, Fisher Scientific) or 96-well ‘U’ bottomed Microfluor W1 microtitre plates (Thermo Labsystems, Ashford, Middlesex, U.K.). Fluorescence assays were monitored using a SpectraMax Gemini fluorescence plate reader (Molecular Devices). For substrates employing either a 7-amino-4-methylcoumarin (AMC) or a 7-amino-4-trifluoromethylcoumarin (AFC) fluorophore, assays were monitored at an excitation wavelength of 365 nm and an emission wavelength of 450 nm and the fluorescence plate reader calibrated with AMC. For substrates employing a 3-amino-benzoyl (Abz) fluorophore, assays were monitored at an excitation wavelength of 310 nm and an emission wavelength of 445 nm; the fluorescence plate reader calibrated with 3-amino-benzamide (Fluka). Unless otherwise indicated, all the peptidase substrates were purchased from Bachem UK, St Helens, Merseyside, UK. Substrates utilizing fluorescence resonance energy transfer methodology (i.e. FRET-based substrates) were synthesized at Incenta Limited using published methods (Atherton & Sheppard, Solid Phase Peptide Synthesis, IRL Press, Oxford, U.K, 1989) and employed Abz (2-aminobenzoyl) as the fluorescence donor and 3-nitro-tyrosine [Tyr(NO2)] as the fluorescence quencher (Meldal, M. and Breddam, K., Anal. Biochem, 195, 141-147, 1991). Hydroxyethylpiperazine ethanesulfonate (HEPES), tris-hydroxylmethyl aminomethane (tris) base, bis-tris-propane and all the biological detergents (e.g. CHAPS, zwittergents, etc.) were purchased from CN Biosciences UK, Beeston, Nottinghamshire, U.K. Glycerol was purchased from Amersham Pharmacia Biotech, Little Chalfont, Buckinghamshire, U.K. Stock solutions of substrate or inhibitor were made up to 10 mM in 100% dimethylsulfoxide (DMSO) (Rathburns, Glasgow, U.K.) and diluted as appropriately required. In all cases the DMSO concentration in the assays was maintained at less than 1% (vol./vol.).
Assay protocols were based on literature precedent (Table 4; Barrett, A. J., Rawlings, N. D. and Woessner, J. F., 1998, Handbook of Proteolytic Enzymes, Academic Press, London and references therein) and modified as required to suit local assay protocols. Enzyme was added as required to initiate the reaction and the activity, as judged by the change in fluorescence upon conversion of substrate to product, was monitored over time. All assays were carried out at 25±1° C.
Bovine cathepsin S, human cathepsin L, human cathepsin H and human cathepsin B were obtained from CN Biosciences. Recombinant human cathepsin S, human cathepsin K and human cathepsin X were obtained from Dr. Boris Turk (Josef Stefan Institute, Ljubljana, Slovenia). Unless otherwise stated, all peptidase activity assays were carried out in 10 mM bis-tris-propane (BTP), pH 6.5 containing 1 mM EDTA, 5 mM 2-mercaptoethanol and 1 mM CaCl2. Human cathepsin H activity assays were carried out in 10 mM BTP pH 6.5, 142 mM NaCl2, 1 mM CaCl2, 1 mM EDTA, 1 mM DTT, 0.035 mM Zwittergent 3-16. Human cathepsin K assays were carried out in 100 mM sodium acetate; pH 5.5 containing 20 mM L-cysteine and 1 mM EDTA (Bossard, M. J., et. al., J. Biol. Chem., 21, 12517-12524, 1996). Human cathepsin X assays were carried out in 100 mM sodium acetate; pH 5.5 containing 20 mM L-cysteine; 0.05% (w/v) Brij 35 and 1 mM EDTA (Santamaria, I., et. al., J. Biol. Chem., 273, 16816-16823, 1998; Klemencic, J, et al., Eur. J. Biochem., 267, 5404-5412, 2000). […]

CPB2.8ΔCTE = biological target: T2, CPB2.8ΔCTE (Leishmania mexicana, UniProt P36400); test: Leishmania mexicana cysteine protease B (CPB) peptidase activity assay (Ki); conditions: Ki, inhibitors of Leismania mexicana CPB protease
T2 construct: Wild-type recombinant CPB without the C-terminal extention (i.e. CPB2.8ΔCTE); Dr. Jeremy Mottram (Wellcome Centre for Molecular Parasitology, University of Glasgow)
Method in brief: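 Apparent Ki was derived by regression of activity against inhibitor concentration, assuming pure-competitive reversible binding. Reaction: 0.25 nM CPB lacking the C-terminal extension, pH 5.5 acetate buffer (1 mM EDTA, 200 mM NaCl, 10 mM DTT), 25 °C, followed by continuous substrate fluorescence.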

Wild-type cruzipain, sequence (P25779 whole entry): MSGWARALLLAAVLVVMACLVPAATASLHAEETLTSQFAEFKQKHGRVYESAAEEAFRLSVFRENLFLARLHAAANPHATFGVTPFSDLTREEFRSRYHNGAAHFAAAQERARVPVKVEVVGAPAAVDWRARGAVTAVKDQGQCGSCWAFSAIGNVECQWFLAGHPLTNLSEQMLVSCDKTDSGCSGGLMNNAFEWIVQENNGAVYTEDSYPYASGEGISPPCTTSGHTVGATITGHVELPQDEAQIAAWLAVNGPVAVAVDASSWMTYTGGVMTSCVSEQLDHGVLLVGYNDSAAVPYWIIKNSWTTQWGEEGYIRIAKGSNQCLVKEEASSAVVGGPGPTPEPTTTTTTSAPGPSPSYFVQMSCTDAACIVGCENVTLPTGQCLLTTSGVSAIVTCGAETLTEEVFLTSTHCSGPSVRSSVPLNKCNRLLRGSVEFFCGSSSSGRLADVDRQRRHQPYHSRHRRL
T2 sequence (P36400 126-343, stated change not applied): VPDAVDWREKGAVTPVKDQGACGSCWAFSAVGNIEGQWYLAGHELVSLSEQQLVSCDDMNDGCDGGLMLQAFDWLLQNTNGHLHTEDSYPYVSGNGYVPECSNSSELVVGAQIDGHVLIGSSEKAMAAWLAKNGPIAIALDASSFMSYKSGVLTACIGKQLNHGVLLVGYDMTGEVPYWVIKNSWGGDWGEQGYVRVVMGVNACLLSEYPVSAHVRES
T1 sequence (P07711 114-333): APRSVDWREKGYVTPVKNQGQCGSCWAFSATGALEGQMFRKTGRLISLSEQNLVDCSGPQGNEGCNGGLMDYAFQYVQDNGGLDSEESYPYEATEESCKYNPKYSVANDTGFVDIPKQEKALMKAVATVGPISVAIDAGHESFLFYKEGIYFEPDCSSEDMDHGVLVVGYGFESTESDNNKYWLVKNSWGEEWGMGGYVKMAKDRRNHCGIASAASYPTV

Row | Ki (Wild-type cruzipain) | Ki (human cathepsin L) | SMILES | Ki (CPB2.8ΔCTE)
1 |  | < 5 µM | O=C(N[C@@H](CSCc1ccccc1)C(=O)N1CC[C@@H]2[C@H]1C(=O)CN2C(=O)c1ccsc1)c1ccsc1 [Example 272, (3aR,6aS)-Thiophene-3-carboxylic acid {(1R)-1-benzylsulfanylmethyl-2-oxo-2-[6-oxo-4-(thiophene-3-carbonyl)-hexahydro-pyrrolo[3,2-b]pyrrol-1-yl]-ethyl}-amide] | 
2 |  | < 5 µM | CN(C)c1ccc(C(=O)N[C@@H](Cc2ccc(O)cc2)C(=O)N2CC[C@@H]3[C@H]2C(=O)CN3C(=O)c2cccc(S(C)(=O)=O)c2)cc1 [Example 358, (3aR,6aS)-4-Dimethylamino-N-{(1S)-1-(4-hydroxy-benzyl)-2-[4-(3-methanesulfonyl-benzoyl)-6-oxo-hexahydro-pyrrolo[3,2-b]pyrrol-1-yl]-2-oxo-ethyl}-benzamide] | 
3 |  | < 5 µM | O=C(N[C@@H](CSCc1ccccc1)C(=O)N1CC[C@@H]2[C@H]1C(=O)CN2C(=O)c1ccccc1)c1cccs1 [Example 282, (3aR,6aS)-Thiophene-2-carboxylic acid [(1R)-2-(4-benzoyl-6-oxo-hexahydro-pyrrolo[3,2-b]pyrrole-1-yl)-1-benzylsulfanylmethyl-2-oxo-ethyl]-amide] | 
4 |  | < 5 µM | O=C(N[C@@H](CSCc1ccccc1)C(=O)N1CC[C@@H]2[C@H]1C(=O)CN2C(=O)c1ccccc1)c1ccccc1 [Example 285, (3aR,6aS)-N-[(1R)-2-(4-Benzoyl-6-oxo-hexahydro-pyrrolo[3,2-b]pyrrol-1-yl)-1-benzylsulfanylmethyl-2-oxo-ethyl]-benzamide] | 
5 |  | < 5 µM | Cc1ccccc1C(=O)N1CC(=O)[C@@H]2[C@H]1CCN2C(=O)[C@H](CC1CCCCC1)NC(=O)c1ccsc1 [Example 291, (3aR,6aS)-Thiophene-3-carboxylic acid {(1S)-1-cyclohexylmethyl-2-[4-(2-methyl-benzoyl)-6-oxo-hexahydro-pyrrolo[3,2-b]pyrrol-1-yl]-2-oxo-ethyl}-amide] | 
6 | < 5 µM | < 5 µM | O=C(N[C@@H](CC1CCCCC1)C(=O)N1CC[C@@H]2[C@H]1C(=O)CN2C(=O)c1ccccc1)c1ccco1 [Example 288, (3aR,6aS)-Furan-2-carboxylic acid [(1S)-2-(4-benzoyl-6-oxo-hexahydro-pyrrolo[3,2-b]pyrrole-1-yl)-1-cyclohexylmethyl-2-oxo-ethyl]-amide] | 

Second part, the molecule before the results:

Row | SMILES | Ki (Wild-type cruzipain) | Ki (human cathepsin L) | Ki (CPB2.8ΔCTE)
7 | CC(C)C[C@H](NC(=O)c1ccc(N(C)C)cc1)C(=O)N1CC[C@@H]2[C@H]1C(=O)CN2C(=O)c1ccc(Cl)o1 [Example 244, (3aR,6aS)-N-{(1S)-1-[4-(5-Chloro-furan-2-carbonyl)-6-oxo-hexahydro-pyrrolo[3,2-b]pyrrole-1-carbonyl]-3-methyl-butyl}-4-dimethylamino-benzamide] | < 5 µM | < 5 µM | 
8 | CC(C)C[C@H](NC(=O)c1cccc(CN)c1)C(=O)N1CC[C@@H]2[C@H]1C(=O)CN2C(=O)Cc1cccc(F)c1 [Example 179, (3aR,6aS)-3-Aminomethyl-N-((1S)-1-{4-[2-(3-fluoro-phenyl)-acetyl]-6-oxo-hexahydro-pyrrolo[3,2-b]pyrrole-1-carbonyl}-3-methyl-butyl)-benzamide] |  | < 5 µM | < 5 µM
9 | O=C(N[C@@H](CC1CCCCC1)C(=O)N1CC[C@@H]2[C@H]1C(=O)CN2C(=O)c1ccc2ccccc2c1)c1ccsc1 [Example 256, (3aR,6aS)-Thiophene-3-carboxylic acid {(1S)-1-cyclohexylmethyl-2-[4-(naphthalene-2-carbonyl)-6-oxo-hexahydro-pyrrolo[3,2-b]pyrrol-1-yl]-2-oxo-ethyl}-amide] | < 5 µM | < 5 µM | 
10 | O=C(N[C@@H](CC1CCCCC1)C(=O)N1CC[C@@H]2[C@H]1C(=O)CN2C(=O)c1ccccc1)c1cccs1 [Example 287, (3aR,6aS)-Thiophene-2-carboxylic acid [(1S)-2-(4-benzoyl-6-oxo-hexahydro-pyrrolo[3,2-b]pyrrole-1-yl)-1-cyclohexylmethyl-2-oxo-ethyl]-amide] | < 5 µM | < 5 µM | 
11 | Nc1ccc(C(=O)N2CC(=O)[C@@H]3[C@H]2CCN3C(=O)[C@H](CSCc2ccccc2)NC(=O)c2ccsc2)cc1 [Example 268, (3aR,6aS)-Thiophene-3-carboxylic acid {(1R)-2-(4-(4-amino-benzoyl)-6-oxo-hexahydro-pyrrolo[3,2-b]pyrrol-1-yl]-1-benzylsulfanylmethyl-2-oxo-ethyl}-amide] |  | < 5 µM | 
12 | NCc1cccc(C(=O)N[C@@H](CSCc2ccccc2)C(=O)N2CC[C@@H]3[C@H]2C(=O)CN3C(=O)c2ccccc2)c1 [Example 278, (3aR,6aS)-3-Aminomethyl-N-[(1R)-2-(4-benzoyl-6-oxo-hexahydro-pyrrolo[3,2-b]pyrrole-1-yl)-1-benzylsulfanylmethyl-2-oxo-ethyl]-benzamide] |  | < 5 µM | < 5 µM
13 | CC(C)C[C@H](NC(=O)c1cccc(CN)c1)C(=O)N1CC[C@@H]2[C@H]1C(=O)CN2C(=O)[C@@H](N)c1ccccc1 [Example 182, (3aR,6aS)-3-Aminomethyl-N-{(1S)-1-[4-((2S)-2-amino-2-phenyl-acetyl)-6-oxo-hexahydro-pyrrolo[3,2-b]pyrrole-1-carbonyl)-3-methyl-butyl}-benzamide] |  | < 5 µM | < 5 µM
14 | CC(C)C[C@H](NC(=O)c1ccc2ccccc2n1)C(=O)N1CC[C@@H]2[C@H]1C(=O)CN2C(=O)c1cccnc1 [Example 18, (3aR,6aS)-Quinoline-2-carboxylic acid {(1S)-3-methyl-1-[6-oxo-4-(pyridine-3-carbonyl)-hexahydro-pyrrolo[3,2-b]pyrrole-1-carbonyl]-butyl}-amide] | < 5 µM | < 5 µM | 
15 | CN(C)c1ccc(C(=O)N[C@@H](Cc2ccc(O)cc2)C(=O)N2CC[C@@H]3[C@H]2C(=O)CN3C(=O)c2ccccc2S(C)(=O)=O)cc1 [Example 357, (3aR,6aS)-4-Dimethylamino-N-{(1S)-1-(4-hydroxy-benzyl)-2-[4-(2-methanesulfonyl-benzoyl)-6-oxo-hexahydro-pyrrolo[3,2-b]pyrrole-1-yl]-2-oxo-ethyl}-benzamide] |  | < 5 µM | 
16 | O=C(N[C@@H](CC1CCCCC1)C(=O)N1CC[C@@H]2[C@H]1C(=O)CN2C(=O)c1ccccc1)c1ccoc1 [Example 289, (3aR,6aS)-Furan-3-carboxylic acid [(1S)-2-(4-benzoyl-6-oxo-hexahydro-pyrrolo[3,2-b]pyrrole-1-yl)-1-cyclohexylmethyl-2-oxo-ethyl]-amide] |  | < 5 µM | 
17 | CN(C)c1ccc(C(=O)N[C@@H](Cc2ccc(O)cc2)C(=O)N2CC[C@@H]3[C@H]2C(=O)CN3C(=O)c2ccccc2)cc1 [Example 356, (3aR,6aS)-N-[(1S)-2-(4-Benzoyl-6-oxo-hexahydro-pyrrolo[3,2-b]pyrrol-1-yl)-1-(4-hydroxy-benzyl)-2-oxo-ethyl)-4-dimethylamino-benzamide] |  | < 5 µM | 
